In patent publication US20120303115A1 (priority 2011, published 2012):
Values belong to the compound of their own block, whether it stands above or below them.

What was measured:
[1] = Description: Table 9, shown below, summarizes a number of injectable liquid formulations of paclitaxel utilizing combinations of ethanol, PEG 400 and water. Specifically, the formulations set forth in Table 9 were made and analyzed for their concentrations of its various constituents. The concentrations are determined by liquid chromatography and are presented as weight by volume figures. The concentration of ethanol is preferably two or less percent so as to avoid ethanol becoming an active ingredient in the formulation.
Another aqueous liquid or injectable formulation of paclitaxel is made utilizing ethanol, PEG 400 and water, and ethanol, Vitamin E TPGS, PEG400 and water. In making the first formulation, 100 mg of paclitaxel is added to 400 μl of ethanol in a pre-weighed 20 ml scintillation vial. The mixture of paclitaxel and ethanol is vortexed and heated in a 60 degree C. bath for ten minutes. Once the drug is completely solubilized, 20 ml of PEG 400 is then added to make the final paclitaxel concentration 5 mg/ml. […] In a separate experiment, a series of 20 ml scintillation vials containing Vitamin E TPGS are heated or warmed up in a 50 degree C. water bath for ten minutes. Concurrently, distilled water is also warmed in a 50 degree C. water bath. […]

[2] = Drug concentration in liquid formulations by liquid chromatography; assay type: physicochemical; conditions: water, Vitamin E TPGS as excipient, ethanol less than two percent
Description: Table 7, shown below, summarizes the concentrations of the excipient, the co-solvents and the drug for four different liquid formulations.
Another liquid formulation of sirolimus comprises water and ethanol as co-solvents and Vitamin E TPGS as the excipient. The liquid formulation was created utilizing the following process. Two hundred milligrams of sirolimus and two grams of ethanol were added to a pre-weighed twenty milliliter scintillation vial. The vial was vortexed and sonicated until the sirolimus was completely dissolved. Approximately six hundred milligrams of Vitamin E TPGS was then added to the solution of ethanol and sirolimus. The vial was vortexed again until a clear yellowish solution was obtained. Nitrogen gas was then used to reduce the amount of ethanol in the vial to approximately two hundred twenty-nine milligrams. In a separate vial, three hundred milligrams of Vitamin E TPGS was dissolved in eleven milliliters of purified water while undergoing vortexing. The Vitamin E TPGS and water solution was then added to the first vial containing the sirolimus, Vitamin E TPGS and ethanol. The first vial was then vortexed vigorously and continuously for three minutes. […] The foam gradually disappeared after sitting at room temperature.
An aqueous formulation of CCl-779, a sirolimus analog, is prepared utilizing ethanol, Vitamin E TPGS and water. […]

[3] = Percent drug content change of coated cobalt-chromium stent, 0 to 12 weeks (FIG. 1); assay type: physicochemical; conditions: 0.02 weight percent BHT per total basecoat solids; sirolimus and polymer on 18 mm stent; 8 weeks and 12 weeks, ambient conditions (25° C.)
From the text: Referring to FIG. 1, there is illustrated in graphical format, the results of the same drug screening as described above with the solution applied to a cobalt-chromium, 18 mm stent. In this test, two sets of solution samples were utilized, one with sirolimus and polymer solution containing the antioxidant and one with sirolimus and polymer solution containing no antioxidant. The antioxidant utilized was 0.02 weight percent BHT per total basecoat solids. The test was utilized to determine the percent drug content change over a time period of 0 to 12 weeks under two conditions; namely, 40° C. with 75 percent relative humidity, and ambient conditions (25° C.).

concentration relative to the solubility of paclitaxel in water [1]: about 1000 fold | paclitaxel concentration of true aqueous liquid formulations [1]: up to 2.5 mg/ml
Compound: CC(=O)O[C@H]1C(=O)[C@@]2(C)[C@H]([C@H](OC(=O)c3ccccc3)[C@]3(O)C[C@H](OC(=O)[C@H](O)[C@@H](NC(=O)c4ccccc4)c4ccccc4)C(C)=C1C3(C)C)[C@]1(OC(C)=O)CO[C@@H]1C[C@@H]2O [paclitaxel]

concentration in the final solution (HPLC assay) [2]: 15000 µg/mL
Compound: CCl-779

drug degradation (percent drug content change) [3]: lessens drug degradation
Compound: Cc1cc(C(C)(C)C)c(O)c(C(C)(C)C)c1 [BHT, butylated hydroxytoluene]
